Results published in patent US20110009379A1, “INDOLINONE COMPOUND” (ASTELLAS PHARMA INC., priority 2008, published 2011).
pEC50, pIC50: −log10 of the molar value.

Tests used:
Cytochrome P450(2D6) = Cytochrome P450(2D6) (Homo sapiens, UniProt P10635); assay: Cytochrome P450(2D6) enzyme inhibition test; format: in vitro ADME; settings: CYP2D6, fluorescent substrate 1.5 μmol/L, 37° C., 20 minutes
Protocol: The experiment was performed in accordance with the method of Crespi et al. (Analytical Biochemistry, 248, 188-190, 1997).
As a substrate, 3-[2-(N,N-diethyl-N-methylamino)ethyl]-7-methoxy-4-methyl coumarine (1.5 μmol/L) a compound to be tested (3.1×10^−7 to 2×10^−5 M) and an enzyme (2.5×10^−8 M) were incubated at 37° C. for 20 minutes in total of […] of 100 mM phosphorous buffer (pH=7.4) including 8.2 mM NADP+, 0.41 mM glucose-6-phosphate, 0.41 mM MgCl2 and 0.4 Units/mL glucose-6-phosphate dehydrogenase, using 96 well plates. Then, 0.5 M aqueous 2-amino-2-hydroxymethyl-1,3-propandiol solution containing 80% acetonitrile was added to stop the reaction, fluorescence intensity (excitation wavelength; 390 nm, fluorescent wavelength; 460 nm) was measured with a fluorescent plate reader. An inhibition ratio was calculated with the following formula, and the test compound concentration when the inhibition ratio is 50% (IC50) was obtained.
C1: fluorescence intensity in the presence of the test compound and enzyme at know concentrations, and the substrate
C0: fluorescence intensity in the presence of the enzyme and substrate, without the test compound
B1: fluorescence intensity of blank well

human TRPA1 = target: T1, human TRPA1 (Homo sapiens, UniProt O75762, K186N/R3C/R58T); assay: Measurement of TRPA1 activation activity (intracellular calcium, FLIPR, HEK293 cells stably expressing human TRPA1); format: cell-based; settings: change of intracellular calcium concentration
T1 construct: expressed in transfected cells; pcDNA3.1(+) vector)
T1 sequence (O75762 whole entry R3C/R58T/K186N): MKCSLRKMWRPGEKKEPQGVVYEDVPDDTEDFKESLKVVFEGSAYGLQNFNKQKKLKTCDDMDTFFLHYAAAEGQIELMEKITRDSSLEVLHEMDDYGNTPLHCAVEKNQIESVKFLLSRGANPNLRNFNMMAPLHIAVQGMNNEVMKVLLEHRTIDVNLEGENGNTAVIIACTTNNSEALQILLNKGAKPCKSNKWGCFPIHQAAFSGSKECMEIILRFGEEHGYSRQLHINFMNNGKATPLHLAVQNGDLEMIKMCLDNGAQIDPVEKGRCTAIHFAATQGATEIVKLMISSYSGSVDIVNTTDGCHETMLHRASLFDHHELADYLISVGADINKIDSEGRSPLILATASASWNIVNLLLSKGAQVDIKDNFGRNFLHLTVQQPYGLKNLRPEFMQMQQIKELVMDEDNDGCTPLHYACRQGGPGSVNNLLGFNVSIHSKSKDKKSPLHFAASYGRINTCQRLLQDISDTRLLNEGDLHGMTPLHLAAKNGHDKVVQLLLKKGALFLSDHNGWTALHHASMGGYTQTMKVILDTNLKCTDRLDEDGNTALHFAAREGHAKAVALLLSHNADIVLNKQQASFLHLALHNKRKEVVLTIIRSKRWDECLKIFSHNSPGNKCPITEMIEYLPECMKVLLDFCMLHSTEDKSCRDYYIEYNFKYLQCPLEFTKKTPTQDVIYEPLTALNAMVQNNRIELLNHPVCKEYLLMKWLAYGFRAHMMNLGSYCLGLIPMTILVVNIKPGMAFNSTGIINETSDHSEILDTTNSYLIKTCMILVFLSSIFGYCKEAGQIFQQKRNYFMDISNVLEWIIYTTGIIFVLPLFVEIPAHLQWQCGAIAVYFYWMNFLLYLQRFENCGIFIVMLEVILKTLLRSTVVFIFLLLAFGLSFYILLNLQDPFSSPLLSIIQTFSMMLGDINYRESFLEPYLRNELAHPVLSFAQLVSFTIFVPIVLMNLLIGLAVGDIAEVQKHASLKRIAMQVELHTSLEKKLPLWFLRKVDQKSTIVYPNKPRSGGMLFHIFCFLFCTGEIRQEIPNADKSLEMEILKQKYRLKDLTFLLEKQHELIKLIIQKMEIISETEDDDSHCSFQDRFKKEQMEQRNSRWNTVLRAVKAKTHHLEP
Protocol: 10 ng of Human brain mRNA (Clontech Co.) was treated with DNase, and then was reverse transcribed using kit for reverse transcription-polymerase chain reaction (RT-PCR) (SUPERSCRIPT First-Strand Synthesis System for RT-PCR; Invitrogen Co.) to synthesize the first strand cDNA. PCR using a hot start method was performed using the first strand cDNA as a template and Taq DNA polymerase (LA Taq DNA polymerase; TAKARA SHUZO). The PCR was performed using oligonucleotides consisting of the nucleotide sequences, represented by sequence number 2 as a sense primer and sequence number 3 as an antisense primer, in which firstly, heat denaturation was performed at 98° C. (1 minute), and then a cycle of 98° C. (15 seconds)/56° C. (30 seconds)/72° C. (5 minutes) was repeated 35 times. As a result, a DNA fragment of about 3.3 kbp was amplified.
The DNA fragment was cloned to pCR-TOPO vector using a cloning kit (TOPO XL PCR Cloning Kit; Invitrogen). The obtained plasmid DNA was digested with restriction enzymes KpnI and HindIII, and then was cloned using plasmid pcDNA 3.1(+)(Invitrogen). In this connection, the plasmid pcDNA 3.1(+) has a promoter sequence derived from cytemegalovirus, and can be used in order to express a protein in animal cells.
The nucleotide sequences of the obtained clones were analyzed using DNA sequencer (ABI3700 DNA Sequencer; Applied Biosystems) by dideoxyterminator method, and the nucleotide sequence represented by sequence number 1 was obtained. Furthermore, when these sequences were translated to amino acid sequences, the amino acid sequence represented by sequence number 1 was obtained.
After constructing the expression vector of the human TRPA1 gene, selection by G418 was performed from the HEK293 cells which temporarily expressed TRPA1 by transfection operation to obtain cells stably expressing TRPA1. The above operation was performed according to known methods (experimental medicine supplementary volume, “Cultivation Cell Experimental Methods for Molecular Biology Study” published by Toshio Kuroki, Namho Hue and Kazuhiro Chida, 1995, Yodosha).
In order to measure the change of the intracellular calcium concentration in the cells stably expressing the human TRPA1, the change of the intracellular calcium concentration when a compound to be tested was added was measured using FLIPR (Molecular Device).
In order to measure the change of the intracellular calcium concentration with FLIPR, the following pretreatment was performed. First of all, assay buffer was prepared which was for adding fluorescent pigment Fluo4-AM (DOJIN) to the cells or washing the cells just before performing FLIPR assay. To a solution (hereinafter, HBSS/HEPES solution) where 20 mL of 1M HEPES (pH 7.4; Invitrogen) was added to 1000 mL of a physiological saline buffer (Hank's Balanced Salt Solution; HBSS) (Invitrogen), was added 10 mL of a solution where 710 mg of probenecid (Sigma) was dissolved into 5 mL of 1M aqueous NaOH solution and 5 mL of HBSS/HEPES solution was further added and mixed, and the assay buffer was thus prepared. Then, 50 μg of Fluo4-AM was dissolved into 22 μL of DMSO (DOJIN), the same amount of 20% pluronic acid (Molecular Probes) was added thereto and mixed, and the mixture was added to the 10.6 mL of the assay buffer where 105 μL of fetal bovine serum was added, to prepare a fluorescent pigment solution. The medium of the cells stably expressing TRPA1 was removed, 100 μL per well of the fluorescent pigment solution was dispensed immediately, followed by cultivation in a CO2 cultivator for 1 hour, and the fluorescent pigment was soaked in the cells. The cells after cultivation were washed using the assay buffer, followed by being set in FLIPR. Furthermore, a test sample, which was added to the cells stably expressing TRPA1, was prepared by using the assay buffer, and at the same time, was set in FLIPR. […]

RIN14B cells = assay: Measurement of 5-HT secretion from RIN14B; format: cell-based; settings: 20 minutes at 37° C., relative to 300 μM allyl isothiocyanate = 100%, HBSS only = 0%
Protocol: In order to investigate whether TRPA1 is related to 5-HT release, 5-HT secretion promotion from RIN14B by a compound to be tested was measured.
The RIN14B cells cultivated in a petri dish were scraped using Phosphate buffered saline (PBS) containing 1 mM EDTA, distributed into 24 well plates, and cultivated for 2 days. As a medium, a medium in which 10% fetal bovine serum (ICN), 100 U/mL penicillin, and 100 μg/mL streptomycin was added to RPMI1640 (Invitrogen), was used. The cells were washed once with HBSS (Invitrogen) and added with 0.1% BSA and 10 μM fluoxetine (TOCRIS Co.), followed by dilution with the above HBSS, the prepared compound to be tested was added to RIN14B cells, followed by cultivation at 37° C., under 5% CO2 condition for 20 minutes. After cultivation, supernatant of cells was recovered, followed by freeze preservation. The content of 5-HT in the supernatant was measured by a commercial serotonin immunoassay kit (Beckman). 5-HT release promotion activation value (%) was evaluated as a relative value when the 5-HT release promotion value by 300 μM of allyl isothiocyanate was defined as 100%, and the 5-HT release promotion value by HBSS for dilution only was defined as 0%.

[1] = system: delay of discharging time induced by loperamide in mice; assay: Loperamide induced constipation model (glass bead discharging time); format: in vivo; settings: Mus musculus; mice (Slc:ddY, male), 0.3 mg/kg loperamide subcutaneously, compound orally; read-out: ED50 (amount which suppresses 50% of the delay of discharging time induced by loperamide)
Protocol: It has been known that loperamide as a μ opioid receptor agonist causes convulsive contraction in intestinal tracts. Thus, a delay in the intestinal transport ability due to loperamide is thought as a constipation IBS model.
Mice (Slc:ddY, five-week old, male) fasted from the previous evening of the experiment. On the day of the experiment, the mice were acclimatized to cages for measurement for 1 hour or more, and 0.3 mg/kg of loperamide was administered subcutaneously. After 30 minutes, a compound to be tested was administered orally, ether anesthesia was applied to the mice immediately thereafter, glass beads having diameter of 3 mm were inserted to 2 cm from anus. The mice were returned to the cages for measurement, and the time from waking to discharging of the glass beads was measured. Furthermore, the compound to be tested was dissolved into 10% DMSO, 10% cremophor, and 80% distillated water.
As a result, it has been recognized that there was a delay in the beads discharging time of the loperamide administration group (vehicle group) in comparison with the loperamide non-administration group (control group).
ED50 values (amount of the compound to be tested which suppresses 50% of the delay of discharging time induced by loperamide) of some of the compounds of the formula (I) are shown in Table 3. In this connection, comparative compound 1 is the same compound as comparative compound 1 in Test Example 4.

Cytochrome P450(2D6), sequence (P10635 whole entry): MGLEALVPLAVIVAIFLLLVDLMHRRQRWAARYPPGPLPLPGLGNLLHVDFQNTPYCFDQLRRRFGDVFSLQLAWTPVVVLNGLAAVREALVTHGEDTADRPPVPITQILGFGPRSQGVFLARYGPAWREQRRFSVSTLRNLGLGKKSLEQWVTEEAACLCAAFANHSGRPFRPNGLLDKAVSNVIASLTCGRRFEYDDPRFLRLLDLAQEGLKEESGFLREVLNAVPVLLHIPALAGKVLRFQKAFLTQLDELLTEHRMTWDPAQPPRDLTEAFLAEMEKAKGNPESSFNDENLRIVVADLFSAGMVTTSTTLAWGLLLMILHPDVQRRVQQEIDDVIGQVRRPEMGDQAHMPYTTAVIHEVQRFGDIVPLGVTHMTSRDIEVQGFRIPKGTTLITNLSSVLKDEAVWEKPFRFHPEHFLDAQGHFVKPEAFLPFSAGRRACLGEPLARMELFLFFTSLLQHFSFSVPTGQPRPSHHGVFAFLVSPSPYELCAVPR

## O=C(O)/C=C1/C(=O)N(CC2CCCC2)c2ccccc21 [Example 26, (2E)-[1-(cyclopentylmethyl)-2-oxo-1,2-dihydro-3H-indol-3-ylidene]acetic acid]
other
  melting point: 140 to 142 °C
Cytochrome P450(2D6)
  pIC50: < 4.70
Human TRPA1
  pEC50: 5.52
RIN14B cells
  5-HT release promotion activation value: 102.5%
[1]
  ED50: 0.51 mg/kg
